Where two headings read alike, the source gives them in different places.
What was measured:
[1] = Parallel artificial membrane permeability assay (PAMPA); conditions: PAMPA, PBS pH 7.4, 200 µM, 5 h, room temperature
Description: The parallel artificial membrane permeability assay (PAMPA) is a fast and easy high-throughput assay to determine passive permeability of compounds through semi-permeable membranes (for example the blood-brain-barrier) without the influence of efflux pumps or transporter molecules.
With the high-throughput PAMPA the newly synthesized compounds were tested for their passive permeability through cell membranes without the influence of efflux pumps or transporter proteins. The assay was performed using a Corning® Gentest^TM Pre-coated PAMPA Plate System with 96-well polystyrene plates. The bottom of the acceptor plate consists of a porous membrane, whereby the pores are lined with a lipid-oil-lipid triple layer. Stock solutions of each test compound at 10 mM were prepared in DMSO or methanol and diluted with phosphate-buffered saline (PBS at a pH of 7.4) to a final concentration of 200 µM. […] The donor plate (bottom plate) was filled with the compound solutions, whereby all compounds were tested in quadruplicates. Each well of the acceptor plate (top plate) was filled with PBS buffer. Donor and acceptor plates were combined and incubated at room temperature for 5 h. After that, the plates were separated and 150 µL of each well of both plates were transferred to 96-well UV plates (Greiner Bio-One). Absorption at different wavelengths covering a range from 200 to 300 nm was measured using a SpectraMax M3 UV plate reader. […] The plates were analyzed at the wavelength where the R^2 value of the calibration curve was higher than 0.99 [41]. […] (2) cequ=[cD(t)∗VD+cA(t)∗VA]/(VD+VA) where: • VD—donor well volume (0.3 mL); • VA—acceptor well volume (0.2 mL); • cA(t)—acceptor well compound concentration at time t; • cD(t)—donor well compound concentration at time t.
Recovery of compounds from donor and acceptor wells (mass retention) was calculated as shown in the equation below. Data were only accepted when recovery exceeded 70%. (3) R=1−[cD(t)∗VD+cA(t)∗VA]/(c0∗VD) where: • R—mass retention (%); • VD—donor well volume (0.3 mL); • VA—acceptor well volume (0.2 mL); • cA(t)—acceptor well compound concentration at time t; • cD(t)—donor well compound concentration at time t; • c0—initial donor well compound concentration (200 µM).

[2] = test system: P. falciparum NF54; parameters: method as in PMID 34832891; conditions: comparison compounds 1-4 of the first series, cited from earlier work; for IC50: read-out: PfNF54 IC50
[3] = test system: L-6 cells; parameters: method as in PMID 34832891; conditions: comparison compounds 1-4 of the first series; read-out: Cytotoxicity L-6 Cells IC50; cited from earlier work
[4] = test system: P. falciparum NF54; experiment: In vitro microplate assay against P. falciparum NF54 (3H-hypoxanthine incorporation); type: cell-based, Plasmodium falciparum; conditions: for IC50: average of four determinations, read-out: PfNF54 IC50
Description: (§1) All newly prepared compounds were tested for their in vitro activity against the chloroquine sensitive strain NF54 of P. falciparum. Cytotoxicity was determined using L-6 cells (rat skeletal myofibroblasts). Chloroquine and podophyllotoxin were used as standards.
The in vitro activity of compounds against erythrocytic stages of the drug sensitive NF54 strain of P. falciparum […] was determined using a ^3H-hypoxanthine incorporation assay. Compounds were dissolved in DMSO at 10 mg/mL and further diluted in medium before adding to parasite cultures that were incubated in RPMI 1640 medium without hypoxanthine, supplemented with HEPES (5.94 g/L), NaHCO3 (2.1 g/L), neomycin (100 U/mL), AlbumaxR (5 g/L) and washed human red blood cells A+ at 2.5% haematocrit (0.3% parasitaemia). Serial drug dilutions of eleven 3-fold dilutions steps covering a range from 100 to 0.002 µg/mL were prepared. The 96-well plates were incubated in a humidified atmosphere at 37 °C; 4% CO2, 3% O2, 93% N2. After 48 h of incubation time, 0.05 mL of ^3H-hypoxanthine (=0.5 µCi) was added to each well of the plate. The plates were incubated for further 24 h under the same conditions. Plates were then harvested using a Betaplate^TM cell harvester (Wallac, Zurich, Switzerland). Red blood cells were transferred onto a glass fiber filter and then washed with distilled water. The dried filters were inserted into a plastic foil with 10 mL of scintillation fluid and counted in a Betaplate^TM liquid scintillation counter (Wallac, Zurich, Switzerland). IC50 values were calculated from sigmoidal inhibition curves by linear regression using Microsoft Excel. Chloroquine (Sigma C6628) was used as control.

[5] = in vitro; conditions: rat
Description: as §1
(§2) The cytotoxicity assays were performed using 96-well microtiter plates, each well containing 4000 L-6 cells (a primary cell line derived from rat skeletal myofibroblasts, ATCC CRL-1458^TM) in 0.1 mL of RPMI 1640 medium supplemented with 1% glutamine (200 mM) and 10% fetal bovine serum. Serial drug dilutions of eleven 3-fold dilution steps covering a range from 100 to 0.002 µg/mL were prepared. After 70 h of incubation, the plates were inspected under an inverted microscope to assure growth of the controls and sterile conditions. Then, 0.01 mL resazurin solution (resazurin, 12.5 mg in 100 mL double-distilled water) was added to each well and the plates were incubated for another 2 h. The plates were read with a Spectramax Gemini XS microplate fluorometer (Molecular Devices Cooperation, Sunnyvale, CA, USA) using an excitation wavelength of 536 nm and an emission wavelength of 588 nm. IC50 values were calculated by linear regression from the sigmoidal dose inhibition curves using SoftmaxPro software (Molecular Devices Cooperation, Sunnyvale, CA, USA). Podophyllotoxin (Sigma P4405) was used as control.

[6] = Solubility in DMSO and methanol (PAMPA stock solutions); type: physicochemical
Description: Permeability is defined using hydrochlorothiazide (Pe = 0.09 × 10^−6 cm/s) and caffeine (Pe = 8.00 × 10^−6 cm/s) as standards.
With the high-throughput PAMPA the newly synthesized compounds were tested for their passive permeability through cell membranes without the influence of efflux pumps or transporter proteins. The assay was performed using a Corning® Gentest^TM Pre-coated PAMPA Plate System with 96-well polystyrene plates. The bottom of the acceptor plate consists of a porous membrane, whereby the pores are lined with a lipid-oil-lipid triple layer. Stock solutions of each test compound at 10 mM were prepared in DMSO or methanol and diluted with phosphate-buffered saline (PBS at a pH of 7.4) to a final concentration of 200 µM. Hydrochlorothiazide (Pe = 0.9 nm/s) and caffeine (Pe = 80 nm/s) were used as standards. The donor plate (bottom plate) was filled with the compound solutions, whereby all compounds were tested in quadruplicates. Each well of the acceptor plate (top plate) was filled with PBS buffer. Donor and acceptor plates were combined and incubated at room temperature for 5 h. After that, the plates were separated and 150 µL of each well of both plates were transferred to 96-well UV plates (Greiner Bio-One). Absorption at different wavelengths covering a range from 200 to 300 nm was measured using a SpectraMax M3 UV plate reader. By measuring serial dilutions of five dilution steps covering a range from 200 to 12.5 µM, a calibration curve was prepared. The plates were analyzed at the wavelength where the R^2 value of the calibration curve was higher than 0.99 [41]. […] (2) cequ=[cD(t)∗VD+cA(t)∗VA]/(VD+VA) where: • VD—donor well volume (0.3 mL); • VA—acceptor well volume (0.2 mL); • cA(t)—acceptor well compound concentration at time t; • cD(t)—donor well compound concentration at time t.

[7] = test system: L-6 cells; experiment: in vitro
Description: as §1, §2

[8] = Plasmodium falciparum, NF54, chloroquine sensitive strain NF54, erythrocytic stages
[9] = reason why permeability could not be detected

Row | Molecule | S.I. = IC50 (Cyt.)/IC50 (PfNF54) [2] | IC50 [2] [µM] | IC50 [3] [µM] | IC50 [4, 8] [µM] | IC50 at 72 h [5] [µM] | solubility in DMSO and methanol [6, 9] | other results
1 | CC(C)(C)OC(=O)N1CCN(c2ccccc2NC(=O)c2cccc(C(F)(F)F)c2Oc2ccc(F)cc2)CC1 [Compound 1, reference compound] | 316.9 | 0.413 | 131 | – | – | – | Pe [1]: 2.37 10^−6 cm/s
2 | CC(C)(C)OC(=O)N1CCN(c2ccc(NC(=O)c3cccc(C(F)(F)F)c3Oc3ccc(F)cc3)cc2)CC1 [Compound 2] | 461.0 | 0.269 | 124 | – | – | – | –
3 | CC(C)(C)C(=O)N1CCN(c2ccccc2NC(=O)c2cccc(C(F)(F)F)c2Oc2ccc(F)cc2)CC1 [Compound 3] | 299.7 | 0.617 | 185 | – | – | – | –
4 | CC(C)(C)C(=O)N1CCN(c2ccc(NC(=O)c3cccc(C(F)(F)F)c3Oc3ccc(F)cc3)cc2)CC1 [Compound 4] | 171.9 | 0.58 | 99.6 | – | – | – | –
5 | CC(C)(C)OC(=O)N1CCN(c2ccccc2NC(=O)c2ccccc2Oc2ccc(F)cc2)CC1 [Compound 26, tert-Butyl 4-{2-[2-(4-fluorophenoxy)benzamido]phenyl}piperazine-1-carboxylate] | – | – | – | 0.627 | 154 | insufficient solubility | –
6 | CC(C)(C)C(=O)N1CCN(c2ccccc2NC(=O)c2ccccc2Oc2ccc(F)cc2)CC1 [Compound 33, N-{2-[4-(2,2-Dimethylpropanoyl)piperazin-1-yl]phenyl}-2-(4-fluorophenoxy)benzamid] | – | – | – | 2.15 | 38.3 | insufficient solubility | –
7 | CC(C)(C)C(=O)N1CCN(c2ccc(NC(=O)c3cccc([N+](=O)[O-])c3Oc3ccc(F)cc3)cc2)CC1 [Compound 44, N-{4-[4-(2,2-Dimethylpropanoyl)piperazin-1-yl]phenyl}-2-(4-fluorophenoxy)-3-nitrobenzamid] | – | – | – | 1.5 | 144 | insufficient solubility | –
8 | CC(C)(C)OC(=O)N1CCN(c2ccc(NC(=O)c3cccc(N)c3Oc3ccc(F)cc3)cc2)CC1 [Compound 47, tert-Butyl 4-{4-[3-amino-2-(4-fluorophenoxy)benzamido]phenyl}piperazine-1-carboxylate] | – | – | – | 3.08 | 158 | – | Papp at 5 h, 200 µM ([1]; pH 7.4, Pe): 0.62 ×10⁻⁶ cm/s
9 | tert-Butyl 4-{4-[3-fluoro-2-(4-fluorophenoxy)benzamido]phenyl}piperazin-1-carboxylate [Compound 27] | – | – | – | – | – | – | S.I. = IC50 (Cyt.)/IC50 (PfNF54) ([4]; L-6 cells IC50 / PfNF54 IC50): 237.5; IC50 ([4]; chloroquine sensitive strain NF54, erythrocytic stages): 0.65 µM; IC50 [7]: 154 µM; solubility in DMSO and methanol [6]: insufficient solubility

From article PMC9783227, “New Derivatives of the Multi-Stage Active Malaria Box Compound MMV030666 and Their Antiplasmodial Potencies” (Pharmaceuticals, 2022)
